{"source": "patent US20240374624A1", "about": "“NOVEL USE OF AT LEAST A HUMAN MILK OLIGOSACCHARIDE” (DSM IP ASSETS B.V., priority 2021, published 2024)", "system": "C. acnes (ATCC reference 11827)", "test": "Cutibacterium acnes Time-Kill Assay", "format": "cell-based", "settings": "for Log-step reduction (16 h) / Log-step reduction (24 h): reduction compared to initial log cfu/ml of 5.38, n=3; for effect on C. acnes (reduction or growth promotion, in words): summary of the time-kill study", "protocol": "Cutibacterium acnes Time-Kill Assay:\nSeven different HMOs were screened for their potential anti-microbial activities against C. acnes (ATCC reference 11827). The action of ingredients and combinations thereof is assessed through a miniaturized method performed in liquid media in 96 deepwell plates format. The inhibition of the growth of C. acnes is compared to the same strain growth in corresponding optimal media.\nThe different ingredients are mixed at two different concentrations in growth medium (final volume 2 mL) in deepwell plates (n=3 for each concentration).\nAnalysis controls are prepared and used identically to samples: • A growth control of C. acnes in the corresponding culture medium; • A […] consisting of Phenoxyethanol prepared at 0.5% (v/v) directly in the culture medium.\nThen, samples are contaminated with C. acnes, inoculum at final concentration of 3.7×10^5 CFU/mL, and incubated at 37° C.±2.5° C. during 24 h. At each defined timepoint (i.e. 30 min, 2 h, 4 h, 16 h and 24 h), a pick-up of the contaminated samples is performed (20 L) after gentle agitation.\nTo perform the counting, aliquots of the contaminated samples are serially diluted (decimal dilutions) in culture medium in 96-well plates with triphenyltetrazolium and incubated at 37° C.±2.5° C. during 48 h. After 48 h at the optimal growing conditions, the last dilution showing a pink color (triphenyltetrazolium) or turbidity indicates the contamination rate and allow the determination of the corresponding microbial population.\nThe results of the Time-Kill study are presented in the table below data are shown as log-step reduction compared to initial log cfu/ml of 5.38.", "key": {"[1]": {"settings": "0.10 wt.-% ingredient in growth medium"}, "[2]": {"settings": "0.5 wt.-% ingredient in growth medium"}}, "data": [{"compound": "2′-fucosyllactose [2′FL]", "values": [{"measurement": "Log-step reduction (16 h)", "setting": "[1]", "result": 0.5, "unit": "log-step"}, {"measurement": "Log-step reduction (24 h)", "setting": "[1]", "result": 0.5, "unit": "log-step"}, {"measurement": "Log-step reduction (16 h)", "setting": "[2]", "result": 1.5, "unit": "log-step"}, {"measurement": "Log-step reduction (24 h)", "setting": "[2]", "result": 1.5, "unit": "log-step"}, {"measurement": "effect on C. acnes (reduction or growth promotion, in words)", "result": "still provided a reduction of C. acnes"}]}, {"compound": "3-fucosyllactose [3FL (Ref), reference compound]", "values": [{"measurement": "Log-step reduction (16 h)", "setting": "[2]", "result": "−0.4", "unit": "log-step"}, {"measurement": "Log-step reduction (24 h)", "setting": "[2]", "result": "−0.4", "unit": "log-step"}, {"measurement": "effect on C. acnes (reduction or growth promotion, in words)", "result": "promoted C. acnes growth"}]}, {"compound": "CC(=O)N[C@H]1[C@H](O[C@H]2[C@@H](O)[C@@H](CO)O[C@@H](O[C@H]3[C@H](O)[C@@H](O)C(O)O[C@@H]3CO)[C@@H]2O)O[C@H](CO)[C@@H](O[C@@H]2O[C@H](CO)[C@H](O)[C@H](O)[C@H]2O)[C@@H]1O", "note": "(mixture of isomers) [LNnT (Ref), lacto-N-neotetraose, reference compound]", "values": [{"measurement": "Log-step reduction (16 h)", "setting": "[1]", "result": "−0.4", "unit": "log-step"}, {"measurement": "Log-step reduction (24 h)", "setting": "[1]", "result": "−0.4", "unit": "log-step"}, {"measurement": "Log-step reduction (16 h)", "setting": "[2]", "result": "−0.5", "unit": "log-step"}, {"measurement": "Log-step reduction (24 h)", "setting": "[2]", "result": "−0.5", "unit": "log-step"}, {"measurement": "effect on C. acnes (reduction or growth promotion, in words)", "result": "promoted C. acnes growth"}]}, {"compound": "CC(=O)N[C@H]1[C@H](O[C@H]2[C@@H](O)[C@@H](CO)O[C@@H](O[C@H]3[C@H](O)[C@@H](O)C(O)O[C@@H]3CO)[C@@H]2O)O[C@H](CO)[C@@H](O)[C@@H]1O[C@@H]1O[C@H](CO)[C@H](O)[C@H](O)[C@H]1O", "note": "(stereo partly drawn) [LNT, lacto-N-tetraose]", "values": [{"measurement": "Log-step reduction (16 h)", "setting": "[1]", "result": 0.5, "unit": "log-step"}, {"measurement": "Log-step reduction (24 h)", "setting": "[1]", "result": 0.5, "unit": "log-step"}, {"measurement": "Log-step reduction (16 h)", "setting": "[2]", "result": 0.5, "unit": "log-step"}, {"measurement": "Log-step reduction (24 h)", "setting": "[2]", "result": 0.5, "unit": "log-step"}, {"measurement": "effect on C. acnes (reduction or growth promotion, in words)", "result": "still provided a reduction of C. acnes"}]}]}
